In patent US7569229B2, “Monocyte locomotion inhibitory factor” (Center for Blood Research, Inc., priority 1998, dated 2009):

Legend:
[1] = tested on: human peripheral blood MP; test: Inhibition of MP chemotaxis towards zymosan activated serum in double-filter Boyden chambers; format: cell-based; details: Boyden chamber; native MLIF and construct in similar concentrations, comparable to each other; n=8 for each group; FIG. 3C
Method: (§1) (b) Preparation of cells. MP (95±2%) and neutrophils (95±2%) were obtained from the peripheral blood of fasting, non-smoking individual donors, using Ficoll-Paque centrifugation and further enrichment of MP by nylon wool adherence. Cell viability was established (≧94%) before and after the experiments by trypan blue dye exclusion.
(§2) (c) MLIF activity. In vitro MLIF activity was assessed either by the inhibition of MP chemotaxis towards zymosan (Sigma) activated serum in double-filter (upper filter 5.0 μm pore size (Nuclepore), lower cell-impermeable filter 8.0 μm pore size (Sartorius)) Boyden chambers, or by the inhibition of MP or neutrophil, Luminol™ (Eastman Kodak) enhanced chemiluminescence after opsonized zymosan particle ingestion, measured in Biorbit 1250 chemiluminometer (LKB) (n>6). In vivo MLIF activity was measured by its capacity to inhibit DNCB (1-chloro-2-4 dinitrobenzene) contact hypersensitivity reactions in individually-caged Harley short hair adult guinea pigs previously (14 days) sensitized with a vesicant DNCB dose (10 mg/ml acetone olive oil (4:1) soaked 5 mm diameter Whatman #2 filter paper disks). […] Disks were removed after 24 h, and redness-induration measured blindly a day later. […]
(§3) In vitro activity of native MLIF and its synthetic custom construct is measured. […]

[2] = tested on: human mononuclear phagocytes; test: Cytoplasmic cyclic AMP in human mononuclear phagocytes; format: cell-based; details: interaction through a receptor on human mononuclear phagocytes
[3] = tested on: DNCB contact hypersensitivity reactions in guinea pigs; test: Inhibition of DNCB contact hypersensitivity skin reaction; format: in vivo, guinea pig; details: for Histology of inhibited DNCB reactions: biopsies, compared to normal, non-interfered DNCB reactions; for DNCB skin reaction (mm diameter, or positive/negative with cut-off 5 mm) compared to PBS or virgin axenic medium control: intradermal injection 0.05 ml, native MLIF 8 μg/ml, custom construct 1, 10 or 100 μg/ml, comparable among them, FIG. 4
Method: (c) MLIF activity. In vitro MLIF activity was assessed either by the inhibition of MP chemotaxis towards zymosan (Sigma) activated serum in double-filter (upper filter 5.0 μm pore size (Nuclepore), lower cell-impermeable filter 8.0 μm pore size (Sartorius)) Boyden chambers, or by the inhibition of MP or neutrophil, Luminol™ (Eastman Kodak) enhanced chemiluminescence after opsonized zymosan particle ingestion, measured in Biorbit 1250 chemiluminometer (LKB) (n>6). In vivo MLIF activity was measured by its capacity to inhibit DNCB (1-chloro-2-4 dinitrobenzene) contact hypersensitivity reactions in individually-caged Harley short hair adult guinea pigs previously (14 days) sensitized with a vesicant DNCB dose (10 mg/ml acetone olive oil (4:1) soaked 5 mm diameter Whatman #2 filter paper disks). Intradermal injections of 0.05 ml of either native MLIF (8 μg/ml), MLIF custom construct (0.001-100 μg/ml), or pyrogen free phosphate buffered saline pH 7.4, were applied just beneath and simultaneous to the application of the eliciting dose of DNCB (0.05 mg/ml soaked paper disks). Disks were removed after 24 h, and redness-induration measured blindly a day later. Biopsies were obtained for histological evaluation in selected samples. The animals were not sacrificed.
(f) Statistical analysis. Results of in vitro MLIF activity were analyzed by non-parametric Mann-Whitney or Kruskall-Wallis analysis of variance test, and in vivo activity results by Student's t and Fisher's exact tests.
The reaction is measured in mm diameter against the eliciting dose, or as positive or negative reactions of the same with a cut-off criterium of 5 mm in diameter.

[4] = tested on: human peripheral blood MP; test: Inhibition of Luminol enhanced chemiluminescence (respiratory burst) in opsonized zymosan activated MP; format: cell-based; details: measured as mV/10^6 cells over a 29-30 minute period; six experiments; comparing experimental conditions, except 1 vs 10 μg of construct; FIG. 3A
Method: as §1, §2, §3

[5] = tested on: human peripheral blood neutrophils; test: Inhibition of Luminol enhanced chemiluminescence (respiratory burst) in opsonized zymosan activated neutrophils; format: cell-based; details: measured as mV/10^6 cells over a 29-30 minute period; six experiments; comparing experimental conditions; FIG. 3B
Method: as §1, §2, §3

[6] = tested on: polymorphonuclear eosinophils; test: Effect on eosinophils (locomotion or metabolism); format: cell-based; details: locomotion or metabolism of polymorphonuclear eosinophils

Row | Substance | Storage stability (at −70° C.) | Heat stability (incubation at 56° C.) | Human peripheral blood MP chemotaxis compared to the normal chemotactic runs (i.e., 100%) [1] | Cytoplasmic mediator cyclic AMP [2] | Histology of inhibited DNCB reactions [3] | DNCB skin reaction (mm diameter, or positive/negative with cut-off 5 mm) compared to PBS or virgin axenic medium control [3] | Areas under the curve of chemiluminescence, MP [4] | Areas under the curve of chemiluminescence, neutrophils [5] | Effect on other cells, such as eosinophils [6]
1 | M - Q - C - N - S (MQCNS; listed as Entamoeba histolytica) [native MLIF, oligopeptide isolated from the supernatant fluid of axenically grown E. histolytica, about 583 Daltons] | storable | heat stable | significantly lower (p<0.01) | increase | scarce mononuclear perivascular infiltrate | significantly different (p<0.001) | significantly (p<0.01) different | significantly (p<0.01) different | does not affect
2 | MQCNS [custom construct] |  |  | significantly lower (p<0.01) |  | scarce mononuclear perivascular infiltrate | significantly different (p<0.001) | significantly (p<0.01) different | significantly (p<0.01) different | 
